Source: US10799456B2, “Multiple drug lipid nanoparticle composition and related methods for extended drug levels in blood and lymph tissue” (priority 2015, dated 2020)
Where two headings read alike, the source gives them in different places.

How the values were obtained:
[1] = pH dependent drug release from LPV/RTV/TFV lipid nanoparticles; type: physicochemical; settings: 2 hrs
Excerpt: As described above, we established the pH-dependent association of various drugs to lipids at neutral pH and the consequent release of the drugs when pH is lowered. Also described above, this stable integration and pH-dependent release of drugs from the multiple drug lipid nanoparticles was consistent for both lipophilic and water soluble compounds. To confirm the pH dependent release of the individual drugs from the multiple drug combination lipid nanoparticles, LPV/RTV/PMPA(TFV) lipid nanoparticles, assembled as described above, were subjected to different pH environments, and the free drug component of the supernatant was assayed to determine the amount of release. […] When a lipid nanoparticle is localized in tissues and taken up by HIV-infected cells, the incorporated antiretroviral drugs are then released inside the cell organelles (such as endosome and lysosomes) when the pH is lowered.

[2] = Drug incorporation/encapsulation (association) efficiency of multi-drug LNPs by dialysis; type: physicochemical; settings: for Degree of incorporation (% total): anti-HIV LNPs LPV/RTV/PMPA
Description: The anti-HIV LNP formulations contain both unbound drug and drugs bound to lipid nanoparticles. […] Drugs were quantified by LC-MS/MS using acetonitrile precipitation. Encapsulation efficiency (EE) was calculated as follows: […]

[3] = Plasma time course of ATV/RTV/TFV lipid nanoparticles in primates; type: in vivo, Macaca nemestrina; settings: for AUC fraction (% total) 8-168 h: male, Macaca nemestrina, in vivo, sc
Description: All animal procedures were performed under an approved protocol reviewed by the University of Washington Institutional Animal Care and Use Committee. […] ATV, RTV, and TFV in the plasma were extracted in duplicate and analyzed with a liquid chromatography-mass spectrometry assay with a validated reverse phase HPLC/MS/MS method, similar to that of lopinavir (LPV), RTV, and TFV. […] Antimicrobial agents and chemotherapy. 2014. The linear trapezoidal method was used to calculate the area under the plasma drug concentration-time curve (AUC) for ATV, RTV, and TFV during the time course, which was close to 168 h post-dosing. […] All drugs in buffer and plasma were analyzed using a validated HPLC/MS/MS analytical method, capable of analyzing […], and TFV. The one-step analysis for LPV, RTV, and TFV was published previously. […] Antimicrobial agents and chemotherapy. 2014. Briefly, the HPLC system was outfitted with a Shimadzu 20AD HPLC (Shimadzu Scientific Instruments, Inc., Pleasanton, Calif.). […] Multiple reaction monitoring (MRM) was used to detect transition ions from a specific precursor ion to product ion. The analytes were detected using the following m/z transitions: 705.5/168.2 for ATV, 548.3/392.3 for DRV, 721.3/296.1 for RTV, 288.1/176 for TFV, and 238.1/193.2 for cyheptamide.

[4] = Storage stability at 4° C. (fraction of drug bound, dialysis); type: physicochemical
Description: To test the long-term stability, the multi-drug nanoparticles were stored under refrigeration at 4° C. and were tested for stability after a prolonged period. The lipid-drug combination particles are stable as determined by both particle size and degree of drug association (Table 12). […] Even the hydrophilic compound, which readily diffuses out of most lipid particles in a number of hours, loses a remarkably low fraction of the associated drug after 8, 12, and 17 months in storage. This exceptional stability provides a substantial advantage for translation to clinical application.

HIV-1 = test: microbe, parasite or virus in culture
[5] = Sucrose gradient test of drug association; type: physicochemical; settings: 5-20% sucrose gradient, 200,000 g, 4 hr, LPV/RTV/TFV LNPs, single miscible solvent method
Description: The sucrose gradient test to determine this characteristic is described in Example 5. Briefly, the sucrose gradient test comprises subjecting the multi-drug lipid nanoparticle to a continuous 5%-20% sucrose gradient and applying a centrifugal force of 200,000 g for 4 hours. The unassociated small molecules separate and float to the less dense fractions, whereas the associated small molecule agents sediment with the stable lipid nanoparticles in the denser gradients. The relative amounts of the unassociated and associated small molecule reagents can be quantified and, thus, compared.
The sucrose gradient test centrifugation test separates any unbound drugs from multi-drug lipid nanoparticles by sedimentation of lipid-drug particles through a sucrose gradient with increasing density to strip off unbound drugs. Under these conditions, all the free drugs in solution remained at (or floated to) the top of gradient where the sucrose density is low. Specifically, using a continuous gradient of 5-20% (with 65% cushion) sucrose, the lipid-drug particle mixture was subjected to centrifugal force at 200,000 g for 4 hr. Through this process, we were able to separate bound and unbound drug fractions. […] It is noted that the observed percentage of multi drug lipid nanoparticle association for the other two drugs (LPV and RTV) are consistent with data in Table 11.

[6] = Combination 1, lipid:LPV:RTV:TFV 115:10:5:15, large scale
[7] = Combination 2, lipid:ATZ:RTV:TFV 115:10:5:15, large scale
[8] = Human immunodeficiency virus 1, read-out: EC50 in LNP form
[9] = Human immunodeficiency virus 1, read-out: EC50 in free form

| Structure (SMILES) | % Drug released from anti-HIV nanoparticles ([1]; pH 4.0, 37° C.) [%] | % Drug released from anti-HIV nanoparticles ([1]; pH 5.5, 37° C.) [%] | % Drug released from anti-HIV nanoparticles ([1]; pH 6.5, 37° C.) [%] | % Drug released from anti-HIV nanoparticles ([1]; pH 7.4, 37° C.) [%] | % particle-bound [2, 6] | % particle-bound [2, 7] | Degree of incorporation (% total) ([2]; laboratory scale (0.1-0.4 ml)) [%] | AUC fraction (% total) 8-168 h [3] [%] | Fraction of drug bound in multi-drug nanoparticles (% total) ([4]; 0 months) [%] | Fraction of drug bound in multi-drug nanoparticles (% total) ([4]; 8 months) [%] | Fraction of drug bound in multi-drug nanoparticles (% total) ([4]; 12 months) [%] | Fraction of drug bound in multi-drug nanoparticles (% total) ([4]; 17 months, one batch) [%] | EC50 (HIV-1; [8]) [nM] | EC50 (HIV-1; [9]) [nM] | % association to lipid-drug particles (bound fraction) [5] | further results |
| --- | --- | --- | --- | --- | --- | --- | --- | --- | --- | --- | --- | --- | --- | --- | --- | --- |
| C[C@H](Cn1cnc2c(N)ncnc21)OCP(=O)(O)O [Tenofovir (TFV), [(2R)-1-(6-aminopurin-9-yl)propan-2-yl]oxymethylphosphonic acid] | 28.7 ± 0.9 | 11.2 ± 1.5 | 15.9 ± 5.4 | 0 ± 2 | (9.9 ± 2.9) % | (7.9 ± 1.8) % | 11.8 ± 5.1 | 97.4 | 9.32 ± 3.79 | 7.72 ± 2.95 | 8.79 ± 0.92 | 7.30 | 15 ± 0.1 | 49 ± 0.2 | around 75.5% | % particle-bound ([2]; Combination 3, lipid:LPV:EFV:TFV 200:26.6:20:40, large scale): (7.9) %; stable lipid association ([2]; across drug combinations): 8-10%; Degree of incorporation (% total) ([2]; clinical scale (15-40 ml), listed as PMPA): 12%; Degree of incorporation (% total) ([2]; clinical scale (15-40 ml), listed as Tenofovir): 11.9 ± 3.0%; % association to lipid-drug particles (bound fraction) ([5]; listed as Tenofovir (TFV or PMPA)): 75.5% |
| CC(C)c1nc(CN(C)C(=O)N[C@H](C(=O)N[C@@H](Cc2ccccc2)C[C@H](O)[C@H](Cc2ccccc2)NC(=O)OCc2cncs2)C(C)C)cs1 [Ritonavir (RTV), Ritonavir] | 94.9 ± 0.7 | 29.0 ± 11.6 | 3.2 ± 4.9 | 2 ± 1 | (83.4 ± 1.4) % | (88.5 ± 3.1) % | 74.2 ± 8.4 | 80.4 | 88.30 ± 7.38 | 93.01 ± 7.70 | 94.91 ± 13.66 | 90.50 | 30 ± 0.8 | 98 ± 0.3 | 76% | Degree of incorporation (% total) ([2]; clinical scale (15-40 ml)): 90.7 ± 7.4%; AUC 0-8 h ([3]; plasma, average of two primates, sc ATV/RTV/TFV LNPs 25/12.8/15.3 mg/kg): 339.1 ng·h/mL |
